Data from ChEMBL document CHEMBL5356964, “Design, synthesis and anti-rheumatoid arthritis activity of target TLR4 inhibitors” (Bioorg Med Chem, 2024).
pIC50: −log10 of the molar value.

Assays:
[1] = tested on: RAW264.7; experiment: Antiarthritic activity against LPS-induced mouse RAW264.7 cells assessed as reduction in IL-1beta level at 1 uM incubated for 24 hrs (Rvb 665.1 +/- 82.1 pg/L); assay type: functional
[2] = biological target: Toll-like receptor 4 (Homo sapiens, UniProt O00206); experiment: Inhibition of TLR4 (unknown origin) using TMB as substrate incubated for 90 mins
Sequence of Toll-like receptor 4 (O00206 whole entry): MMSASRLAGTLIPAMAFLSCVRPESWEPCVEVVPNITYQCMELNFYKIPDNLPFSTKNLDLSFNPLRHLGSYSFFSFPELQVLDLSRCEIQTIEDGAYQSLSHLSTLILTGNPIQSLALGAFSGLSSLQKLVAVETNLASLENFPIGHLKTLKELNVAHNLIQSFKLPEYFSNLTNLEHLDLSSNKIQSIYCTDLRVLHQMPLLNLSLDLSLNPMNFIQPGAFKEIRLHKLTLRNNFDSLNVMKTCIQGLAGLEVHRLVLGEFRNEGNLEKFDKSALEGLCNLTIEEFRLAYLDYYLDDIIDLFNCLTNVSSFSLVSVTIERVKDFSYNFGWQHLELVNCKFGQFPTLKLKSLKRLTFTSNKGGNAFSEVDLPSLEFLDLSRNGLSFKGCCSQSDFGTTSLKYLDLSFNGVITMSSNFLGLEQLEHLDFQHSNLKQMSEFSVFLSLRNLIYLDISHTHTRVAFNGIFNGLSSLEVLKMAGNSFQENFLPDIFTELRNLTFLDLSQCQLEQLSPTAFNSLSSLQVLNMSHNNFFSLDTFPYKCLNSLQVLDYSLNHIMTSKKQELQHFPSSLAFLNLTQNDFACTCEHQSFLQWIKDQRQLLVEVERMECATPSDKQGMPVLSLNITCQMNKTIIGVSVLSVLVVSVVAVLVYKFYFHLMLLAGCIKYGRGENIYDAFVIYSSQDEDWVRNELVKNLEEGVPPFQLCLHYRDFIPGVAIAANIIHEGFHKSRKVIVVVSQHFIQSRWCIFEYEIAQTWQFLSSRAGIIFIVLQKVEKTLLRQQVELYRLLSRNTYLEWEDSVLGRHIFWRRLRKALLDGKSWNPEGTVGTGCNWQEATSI

[3] = tested on: RAW264.7; experiment: Antiproliferative activity against LPS-induced- mouse RAW264.7 cells assessed as inhibition of cell growth incubated for 24 hrs by CCK-8 assay; assay type: functional, cell-based; settings: RAW264.7, 24 h
[4] = tested on: RAW264.7; experiment: Antiarthritic activity against LPS-induced mouse RAW264.7 cells assessed as reduction in TNF-alpha level at 1 uM incubated for 24 hrs (Rvb 653.3 +/- 70.1 pg/L); assay type: functional
[5] = Antiproliferative activity against rat Synovial cell assessed as inhibition of cell growth incubated for 48 hrs by CCK-8 assay; assay type: functional, cell-based
[6] = tested on: RAW264.7; experiment: Antiarthritic activity against LPS-induced mouse RAW264.7 cells assessed as reduction in IL-6 level at 1 uM incubated for 24 hrs (Rvb 231.1 +/- 24.2 pg/L); assay type: functional

pIC50 [2] | SMILES | Activity [1] | pIC50 [3] | Activity [4] | pIC50 [5] | Activity [6]
5.99 | CC(=O)CC(=O)C1CC(N)CCC1=O (stereo unspecified) | 367.3 pg/L | 5.92 | 332.9 pg/L | 5.67 | 136.9 pg/L
 | CC(=O)CC(=O)C1CC(NC(=O)OCc2ccccc2)CCC1=O (stereo unspecified) |  | 5.63 |  | 5.37 | 
5.92 | CC(=O)CC(=O)C1CC(NC(C)=O)CCC1=O (stereo unspecified) | 407.2 pg/L | 5.88 | 365.2 pg/L | 5.58 | 158.9 pg/L
 | CC(=O)CC(=O)C1CC(c2ccccc2)CCC1=O (stereo unspecified) |  | 5.66 |  | 5.40 | 
 | CC(=O)CC(=O)C1CC(C2=CCCCC2)CCC1=O (stereo unspecified) |  | 5.55 |  | 5.27 | 
 | COC(=O)C1CCC(=O)C(C(=O)CC(C)=O)C1 (stereo unspecified) |  | 5.13 |  | 4.78 | 
 | CC(=O)CC(=O)C1CC(C(C)(C)C)CCC1=O (stereo unspecified) |  | 5.53 |  | 5.19 | 
5.94 | CC(=O)CC(=O)C1CC(C)CCC1=O (stereo unspecified) | 457.8 pg/L | 5.77 | 399.1 pg/L | 5.48 | 176.6 pg/L
 | CCC(C)(C)C1CCC(=O)C(C(=O)CC(C)=O)C1 (stereo unspecified) |  | 5.41 |  | 4.99 | 
 | CC(=O)CC(=O)C1CC(N2C(=O)c3ccccc3C2=O)CCC1=O (stereo unspecified) |  | 5.58 |  | 5.22 | 
 | CCC1CCC(=O)C(C(=O)CC(C)=O)C1 (stereo unspecified) |  | 5.57 |  | 5.27 | 
 | CCCCCC1CCC(=O)C(C(=O)CC(C)=O)C1 (stereo unspecified) |  | 5.61 |  | 5.29 | 
